The subject of one experiment is MDCK cells. The experiment can be described thus: Reversal of in vitro cyst formation in MDCK cells (Experiment 4). The conditions noted are these: compound added every 2 days from day 10 to day 20, with forskolin and vasopressin; FIG. 8. It is filed as cell-based, canine. The protocol:
In this study, the potential of PDE4 long form activators to reverse the formation of pre-formed cysts was evaluated. The experiment was carried out according to the method of Experiment 3. For the first 10 days, forskolin and vasopressin were added at every feed (every 2 days) but no test compound was added. For the next 10 days, the test compound, forskolin and vasopressin were added at every feed (every 2 days).
Phase-contrast images were obtained on the Motic microscope (×200 magnification) every 2 days for 20 days. Per condition, 10 images were taken (in duplicate) and the average cyst radius measured.

A further experiment concerns the target T1, full-length human PDE4A4 (Homo sapiens, UniProt P27815).
T1 construct: stably expressed the full-length human PDE4D5, PDE4A4 and PDE4B1 long isoforms; made in house; cytosol fraction of the lysate
The experiment can be described thus: PDE4 radio-assay, PDE4A4 long form activation (Experiment 1). It is filed as biochemical. The conditions noted are these: n ≥ 2. The protocol:
One suitable method of detecting whether or not a compound is capable of serving as an activator of a PDE4 long form is using a two-step radio-assay procedure described in Experiment 1. In summary, the method involves incubating a PDE4 long form with a test small molecule activator, together with [^3H]-labelled cAMP to assess alterations in the breakdown of cAMP to the 5′-adenosine monophosphate (5′-AMP) product. A sample of the reaction mixture from such an incubation is subsequently treated with snake venom 5′-nucleotidase to allow conversion of the nucleotide [^3H]-labelled 5′-AMP to the uncharged nucleoside [^3H]-labelled adenosine, which can be separated and quantified to assess PDE4 activity and the effect of the test compound (Thompson, W. J. and Appleman, M. M. Biochemistry 10: 311-316, 1971, with some modifications as described in: Marchmont, R. J. and Houslay, M. D. Biochem J. 187: 381-92, 1980).
HEK 293 cells were transfected with pDEST™ PDE4 expression vectors using Lipofectamine LTX/Plus reagent (Invitrogen) as outlined by the manufacturer and clonal isolates expanded to obtain cell lines that stably expressed the full-length human PDE4D5, PDE4A4 and PDE4B1 long isoforms and the full length human PDE4B2 short isoform. These were called the HEK-PDE4D5, HEK-PDE4A4, HEK-PDE4B1 and HEK-PDE4B2 cell lines, respectively.
HEK-PDE4D5 cells were seeded out in 100 mm plates and incubated at 37° C. in an atmosphere of 5% CO2, 95% air. Cell lysates were prepared using KHEM buffer [50 mM KCl, 10 mM EGTA, 50 mM HEPES (pH 7.2), 1.92 mM MgCl2].
To prepare the cell lysates, the 100 mm plates containing the cells were placed on ice and washed with ice-cold PBS (phosphate buffered saline, pH 7.4). KHEM buffer (500 μl) was added to the cells. Cells were then scraped off the plate and triturated using a needle (BD Microlance™ 0.8, 40 mm). The lysed cells were then centrifuged at 2000 rpm for 10 minutes to remove cell debris and the supernatant (cell lysate containing recombinant PDE4D5) was transferred to a fresh tube and kept on ice.
The cell lysate containing recombinant PDE4D5 was transferred into a centrifuge tube and placed into an ultracentrifuge (BECKMAN COULTER) and spun at high speed (100,000 g) for 30 minutes at 4° C. The cytosol fraction was then collected and its protein amount determined using a BCA protein assay.
PDE assays were performed using a final concentration of 10 mM Tris/5 mM MgCl2 and 1 μM [3H]-cAMP (Perkin Elmer) plus PDE4D5 cell lysate cytosol fraction, containing over-expressed PDE4D5, with and without test compound. Incubations were performed at 30° C. for 5 minutes. The samples were then placed in a boiling water bath for 2 minutes to denature the PDE enzyme, and returned to ice. Samples were allowed to cool for 1.0 min after which snake venom 5′-nucleotidase (25 μl, 1 mg/ml; Sigma) was added. The tubes were vortexed and incubated in a water bath at 30° C. for 10 minutes, to attain conversion of [3H]-5′-AMP to [3H]-adenosine, and then placed on ice. Dowex ion exchange resin (Sigma) prepared as a 1:1 Dowex:water stock was thoroughly re-suspended and diluted 2:1 with ethanol. The resulting Dowex suspension (0.4 ml) was added to each tube. Tubes were vortexed to mix and then incubated on ice for at least 15 minutes before a final vortex. […] Tubes were vortexed thoroughly to mix and the recovered [3H]-adenosine was quantified by measuring counts over 1 minute in a scintillation counter.

For experiment [1], the system named is androgen-insensitive (AI) LNCaP human prostate cancer cells. The experiment can be described thus: Xcelligence proliferation assay, androgen-insensitive LNCaP cells (Experiment 5). The conditions noted are these: normalised cell index at 72 hours; FIG. 10. It is filed as cell-based. The protocol: In this study, the potential utility of PDE4 long form activators in the treatment of prostate cancer was studied using the LNCaP human prostate cancer cell line. The experiments were carried out according to the method described by Henderson et al. (Henderson, D. J. P., Byrne, A., Dulla, K., Jenster, G., Hoffmann, R., Baillie, G. S., Houslay, M. D. Br. J. Cancer 110: 1278-1287, 2014).
Androgen-sensitive (AS) LNCaP cells were maintained in RPMI1640 supplemented with 10% FBS (Seralabs), 2 mM L-glutamine and 1,000 U penicillin-streptomycin. LNCaP androgen-insensitive (AI) cells were generated in-house by culturing the LNCaP-AS cells in RPMI1640 supplemented with 10% charcoal stripped FBS, 2 mM L-glutamine and 1,000 U penicillin-streptomycin for a minimum of four weeks. All tissue culture reagents were, from Life Technologies.
Cell proliferation is measured as a function of changing electrical impedance. Values are represented by cell index number, a dimensionless unit of measurement representing the cell status, which increases as cells adhere to 96-well electrode plates and divide. […]
Cell indices were measured every 10 minutes for up to 100 hours, analysed using RICA software and normalised to the cell index of vehicle-treated cells (n=3).

The structures appear in SMILES notation.

T1 sequence (P27815 whole entry, canonical isoform): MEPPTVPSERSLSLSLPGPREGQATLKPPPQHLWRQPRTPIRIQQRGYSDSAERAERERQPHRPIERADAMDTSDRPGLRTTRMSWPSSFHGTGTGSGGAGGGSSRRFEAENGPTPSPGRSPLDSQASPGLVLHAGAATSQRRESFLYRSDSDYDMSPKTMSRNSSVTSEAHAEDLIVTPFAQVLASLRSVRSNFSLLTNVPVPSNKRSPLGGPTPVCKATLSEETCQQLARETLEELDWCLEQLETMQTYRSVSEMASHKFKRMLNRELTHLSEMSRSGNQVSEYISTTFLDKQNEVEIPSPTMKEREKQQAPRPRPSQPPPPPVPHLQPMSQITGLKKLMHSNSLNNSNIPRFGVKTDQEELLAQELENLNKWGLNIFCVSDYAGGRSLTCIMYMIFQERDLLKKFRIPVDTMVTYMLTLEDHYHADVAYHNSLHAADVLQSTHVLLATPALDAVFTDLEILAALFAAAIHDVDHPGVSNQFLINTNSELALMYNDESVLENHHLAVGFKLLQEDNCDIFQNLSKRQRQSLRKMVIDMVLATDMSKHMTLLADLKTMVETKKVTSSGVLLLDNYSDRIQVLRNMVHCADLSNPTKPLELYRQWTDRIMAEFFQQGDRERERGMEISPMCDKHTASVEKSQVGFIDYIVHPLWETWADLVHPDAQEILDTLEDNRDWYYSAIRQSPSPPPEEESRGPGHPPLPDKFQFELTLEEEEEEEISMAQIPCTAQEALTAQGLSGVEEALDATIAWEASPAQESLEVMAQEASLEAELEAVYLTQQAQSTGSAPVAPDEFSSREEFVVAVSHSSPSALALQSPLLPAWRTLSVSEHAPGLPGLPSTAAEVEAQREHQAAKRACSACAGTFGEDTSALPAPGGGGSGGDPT

With `CCc1nc(-c2ccc(Cl)c(F)c2)nn1CC(=O)NCc1cccc(F)c1` [Example A, N-(3-Fluorobenzyl)-2-[3-(4-chloro-3-fluorophenyl)-5-ethyl-1H-1,2,4-triazol-1-yl]acetamide], the “in vitro cyst formation in MDCK cells, reversal (in words)” value with MDCK cells is “reversal of in vitro cyst formation”. Moreover, the “PDE4A4 activity (mean % increase in counts over basal activity without added compound)” value on full-length human PDE4A4 (1 μM compound) is given as 1.1%; on full-length human PDE4A4 (3 μM compound), 2.7%; on full-length human PDE4A4 (10 μM compound) it was 10.4%; on full-length human PDE4A4 (30 μM compound) it was 38.5%; on full-length human PDE4A4 (50 μM compound) it was 65.4%. The “proliferation of androgen-insensitive (AI) LNCaP cells (in words)” value in experiment [1] is recorded as “inhibits the proliferation”.

Values taken from patent US10793531B2, “Triazole derivatives and their use as PDE4 activators” (MIRONID LIMITED, priority 2015, dated 2020).
